Reference: patent US8975399B2, “Benzenesulfon amide-compound treatment of a pathological condition linked to an excessive effect of TNF” (priority 2010, dated 2015)

target: T1, human TNF-alpha (Homo sapiens, UniProt P01375); test: Apoptosis induced by human TNF-alpha on murine L929 cells (MTT survival); format: cell-based; conditions: compound 10 μM, human TNF-alpha 0.150 ng/ml, 24 hours, % survival based on control cells without TNF
T1 construct: purchased R & D Diagnostics
Protocol: The compounds are dissolved in DMSO to be used in vitro or in vivo by oral route, and in Cremophor® for their use in vivo by intraperitoneal route.
The cells were cultured in DMEM medium with 10% fcetal calf serum added. 4×10^4 cells in 100 μl of culture medium were exposed to human TNF-alpha (R & D Diagnostics) at 0.150 ng/ml for 24 hours in 96-well plates, and the tested compound was added at a final concentration of 100 μM or 10 μM. A solution of MTT dye was added (100 μl at 0.5 mg/ml) to each well over two hours in order to measure cell survival. The absorbance was measured at 570 nm using a BMG Fluostar microplate reader. The inhibitory activity of the products was expressed as a calculated % survival based on the control cells without the addition of TNF.

T1 sequence (P01375 77-233 limits assumed): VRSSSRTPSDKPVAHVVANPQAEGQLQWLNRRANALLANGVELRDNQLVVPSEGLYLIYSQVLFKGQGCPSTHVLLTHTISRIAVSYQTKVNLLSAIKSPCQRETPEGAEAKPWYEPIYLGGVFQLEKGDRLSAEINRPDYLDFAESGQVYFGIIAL

Molecule	% Inhibition 10 μM [%]
Cc1ccc(-c2nnc(NCc3ccccc3)c3ccccc23)cc1S(=O)(=O)NCC1CCCO1 (stereo not shown) [Compound 23, 5-[4-(benzylamino)-1-phthalazinyl]-2-methyl-N-(tetrahydro-2-furanylmethyl)benzenesulphonamide]	44.74
Cc1ccc(S(=O)(=O)N(CC(=O)N2CCN(Cc3ccccc3)CC2)c2ccccc2C)cc1 [Compound 82, N-[2-(4-benzyl-1-piperazinyl)-2-oxoethyl]-4-methyl-N-(2-methylphenyl)benzenesulphonamide]	34.6
COc1ccc(S(=O)(=O)N(CC(=O)N2CCc3ccccc3C2)c2cc(C)cc(C)c2)cc1OC [Compound 78, N-[2-(3,4-dihydro-2(1H)-isoquinolinyl)-2-oxoethyl]-N-(3,5-dimethylphenyl)-3,4-d imethoxybenzenesulphonamide]	38.4
COC(=O)c1c(C)oc2ccc(NS(=O)(=O)c3ccc(OC)cc3)cc12 [Compound 2, methyl 5-{[(4-methoxyphenyl)sulphonyl]amino}-2-methyl-1-benzofuran-3-carboxylate]	57.51
COc1ccccc1N1CCN(C(=O)CN(Cc2ccccc2)S(=O)(=O)c2ccc(Cl)cc2)CC1 [66 (14), N-benzyl-4-chloro-N-{2-[4-(2-methoxyphenyl)-1-piperazinyl]-2-oxoethyl}benzenesulphonamide]	67.4
CC1CCN(C(=O)CN(Cc2ccc(Cl)c(Cl)c2)S(=O)(=O)c2ccc(Cl)cc2)CC1 [Compound 74, 4-chloro-N-(3,4-dichlorobenzyl)-N-[2-(4-methyl-1-piperidinyl)-2-oxoethyl]benzenesulphonamide]	45.6
N-[2-(4-benzyl-1-piperazinyl)-2-oxoethyl]-N-(3-chlorophenyl)-4-methyl benzenesulphonamide [65 (13)]	61.4
N-{2-[4-(diphenylmethyl)-1-piperazinyl]-2-oxoethyl}-N,4-dimethyl benzenesulphonamide [Compound 85]	32.1
COc1ccc(S(=O)(=O)N(CC(=O)N2CCN(c3ccc(F)cc3)CC2)Cc2ccccc2)cc1OC [Compound 84, N-benzyl-N-{2-[4-(4-fluorophenyl)-1-piperazinyl]-2-oxoethyl}-3,4-dimethoxybenzenesulphonamide]	33.6
COc1ccccc1N1CCN(C(=O)CN(Cc2ccc(F)cc2)S(=O)(=O)c2ccc(Cl)cc2)CC1 [Compound 71, 4-chloro-N-(4-fluorobenzyl)-N-{2-[4-(2-methoxyphenyl)-1-piperazinyl]-2-oxoethyl}benzenesulphonamide]	53.6
COc1ccc(NC(=O)CN(Cc2cccc(Cl)c2)S(=O)(=O)c2ccc(C)cc2)c(OC)c1 [Compound 33, N˜2˜-(3-chlorobenzyl)-N˜1˜-(2,4-dimethoxyphenyl)-N˜2˜-[(4-methylphenyl)sulphonyl]glycinamide]	52.4
Cc1ccc(S(=O)(=O)N(CC(=O)N2CCN(Cc3ccccc3)CC2)c2cc(C)cc(C)c2)cc1 [Compound 76, N-[2-(4-benzyl-1-piperazinyl)-2-oxoethyl]-N-(3,5-dimethylphenyl)-4-methylbenzenesulphonamide]	35.5
COc1ccc(S(=O)(=O)N(CC(=O)N2CCN(c3ccccc3)CC2)c2ccc(C)cc2)cc1OC [Compound 79, 3,4-dimethoxy-N-(4-methylphenyl)-N-[2-oxo-2-(4-phenyl-1-piperazinyl)ethyl]benzenesulphonamide]	36.8
COc1ccccc1N1CCN(C(=O)CN(Cc2ccccc2)S(=O)(=O)c2ccc(Br)cc2)CC1 [67 (15), N-benzyl-4-bromo-N-{2-[4-(2-methoxyphenyl)-1-piperazinyl]-2-oxoethyl}benzenesulphonamide]	61.8
N-(1′,2-dihydroxy-1.2′-binaphthhalen-4′-yl)-4-methoxybenzene-sulphonamide [Compound 21]	53.45
N-[2-(4-benzyl-1-piperazinyl)-2-oxoethyl]-N-(4-chlorophenyl)-4-methyl benzenesulphonamide [68 (16)]	56.2

Molecule	% Inhibition 10 μM [%]
COc1ccc(S(=O)(=O)Nc2cc3c(C(C)=O)c(C)oc3cc2C)cc1 [Compound 1, N-(3-acetyl-2,6-dimethyl-1-benzofuran-5-yl)-4-methoxybenzene sulphonamide]	71.15
Cc1ccc(S(=O)(=O)N(CC(=O)N2CCN(Cc3ccccc3)CC2)c2ccc(C)c(C)c2)cc1 [72 (21), N-[2-(4-benzyl-1-piperazinyl)-2-oxoethyl]-N-(3,4-dimethylphenyl)-4-methylbenzenesulphonamide]	53.4
N-{2-[4-(2-fluorophenyl)-1-piperazinyl]-2-oxoethyl}-N-(4-methylbenzyl) benzenesulphonamide [70 (19)]	54.0
3-(4-fluorophenyl)-4-oxo-4H-chromen-7-ylN-[(4-methylphenyl)sulphonyl]-beta-alaninate [Compound 24]	50.26
COC(=O)c1c(C)oc2ccc(NS(=O)(=O)c3ccc(C)cc3)cc12 [Compound 3, methyl 2-methyl-5-{[(4-methylphenyl)sulphonyl]amino}-1-benzofuran-3-carboxylate]	48.09
CCOc1ccc(S(=O)(=O)Nc2cc3c(C(C)=O)c(C)oc3c3ccccc23)cc1 [16 (1), N-(3-acetyl-2-methylnaphthho[1,2-b]furan-5-yl)-4-ethoxybenzene sulphonamide]	80.40
Cc1ccc(S(=O)(=O)N(CC(=O)N2CCC(Cc3ccccc3)CC2)c2ccc(F)cc2)cc1 [Compound 81, N-[2-(4-benzyl-1-piperidinyl)-2-oxoethyl]-N-(4-fluorophenyl)-4-methylbenzenesulphonamide]	34.8
COc1ccc(S(=O)(=O)N(CC(=O)N2CCN(c3ccccc3OC)CC2)Cc2ccccc2)cc1C [32 (3), N-benzyl-4-methoxy-N-{2-[4-(2-methoxyphenyl)-1-piperazinyl]-2-oxoethyl}-3-methylbenzenesulphonamide]	69.73
COc1ccc(OC)c(N(CC(=O)Nc2cccc(C(C)=O)c2)S(=O)(=O)c2ccc(C)cc2)c1 [Compound 34, N˜1˜-(3-acetylphenyl)-N-˜2˜-(2,5-dimethoxyphenyl)-N˜2˜-[(4-methylphenyl)sulphonyl]glycinamide]	42.26
COc1ccc(S(=O)(=O)N(CC(=O)N2CCN(c3ccccc3F)CC2)Cc2ccccc2)cc1 [Compound 77, N-benzyl-N-{2-[4-(2-fluorophenyl)-1-piperazinyl]-2-oxoethyl}-4-methoxybenzenesulphonamide]	32.8
N-benzyl-4-methyl-N-[2-oxo-2-(4-phenyl-1-piperazinyl)pethyl]benzenesulphonamide [69 (18)]	61.3
N-(1,2-dihydro-5-acenaphthhylenyl)-2.4,6-trimethylbenzenesulphonamide [Compound 26]	43.84
Cc1c(Cl)cccc1N(CC(=O)N1CCN(Cc2ccccc2)CC1)S(=O)(=O)c1ccccc1 [73 (23), N-[2-(4-benzyl-1-piperazinyl)-2-oxoethyl]-N-(3-chloro-2-methylphenyl)benzenesulphonamide]	44.8
Cc1ccc(CN(CC(=O)N2CCN(c3ccc(F)cc3)CC2)S(=O)(=O)c2ccccc2)cc1 [Compound 80, N-{2-[4-(4-fluorophenyl)-1-piperazinyl]-2-oxoethyl}-N-(4-methylbenzyl)benzenesulphonamide]	34.3
COc1ccccc1N1CCN(C(=O)CN(Cc2ccccc2)S(=O)(=O)c2ccc(F)cc2)CC1 [Compound 75, N-benzyl-4-fluoro-N-{2-[4-(2-methoxyphenyl)-1-piperazinyl]-2-oxoethyl}benzenesulphonamide]	44.7
